Assay results taken from PubChem BioAssay AID588412 (NMMLSC, 2011).
Activity calls are given as the source filed them.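 Rule for the calls: active = fitted EC50 below about 63 µM, meaning a log molar EC50 under -4.2; inactive = the rest.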

Molecular target: Integrin alpha-4 (Homo sapiens) (UniProt P13612)
Assay: displacement of fluorescent LDV from VLA-4 – U937 cells, flow cytometry, set 1, orthogonal assay, dose response (AID 588412)
Conditions: LDV-FITC competition, flow cytometry MCF

Chain of Integrin alpha-4 (Homo sapiens) (P13612 whole entry, looked up): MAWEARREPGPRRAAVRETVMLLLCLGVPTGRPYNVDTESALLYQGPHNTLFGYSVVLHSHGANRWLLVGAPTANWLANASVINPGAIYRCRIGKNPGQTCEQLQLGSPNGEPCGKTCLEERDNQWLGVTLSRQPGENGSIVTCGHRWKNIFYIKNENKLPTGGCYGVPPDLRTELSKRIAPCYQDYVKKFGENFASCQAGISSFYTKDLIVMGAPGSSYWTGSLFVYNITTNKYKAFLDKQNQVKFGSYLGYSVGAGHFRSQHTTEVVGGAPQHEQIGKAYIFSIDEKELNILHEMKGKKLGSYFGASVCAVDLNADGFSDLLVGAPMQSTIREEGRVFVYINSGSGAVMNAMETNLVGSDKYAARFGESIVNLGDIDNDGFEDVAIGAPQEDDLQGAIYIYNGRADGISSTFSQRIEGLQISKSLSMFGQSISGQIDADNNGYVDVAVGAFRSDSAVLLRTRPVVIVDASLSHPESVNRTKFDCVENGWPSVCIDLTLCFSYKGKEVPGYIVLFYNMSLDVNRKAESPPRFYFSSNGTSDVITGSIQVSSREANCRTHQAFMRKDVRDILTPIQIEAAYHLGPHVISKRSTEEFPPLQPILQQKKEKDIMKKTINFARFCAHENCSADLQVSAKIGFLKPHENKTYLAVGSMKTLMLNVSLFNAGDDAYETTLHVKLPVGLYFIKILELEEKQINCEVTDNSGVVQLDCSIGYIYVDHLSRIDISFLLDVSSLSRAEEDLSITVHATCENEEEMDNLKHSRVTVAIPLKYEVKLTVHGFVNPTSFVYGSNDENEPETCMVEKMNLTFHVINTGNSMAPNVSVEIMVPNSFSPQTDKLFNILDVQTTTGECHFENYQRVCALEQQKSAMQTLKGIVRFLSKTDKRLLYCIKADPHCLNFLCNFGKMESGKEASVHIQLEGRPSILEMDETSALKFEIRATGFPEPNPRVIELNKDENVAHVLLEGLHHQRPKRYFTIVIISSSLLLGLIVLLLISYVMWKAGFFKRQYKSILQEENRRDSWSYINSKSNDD

Q: For `COc1ccc(-c2sc3ccccc3c2-c2ccc(OCCN(C)C)cc2)cc1`, which EC50 is on record?
A: Its EC50 is 16.3 µM.

Q: Which EC50 does the source give for `COc1cccc(-c2sc3ccccc3c2-c2ccc(OCCN(C)C)cc2)c1` here?
A: The EC50 was 24.5 µM.

Q: With `CN(C)CCOc1ccc(-c2c(-c3ccccc3)sc3ccccc23)cc1` as the compound, how does the EC50 read?
A: Its EC50 is 30.2 µM.

Q: Which EC50 does the source give for `c1ccc2c(-c3ccc(OCCN4CCCCC4)cc3)c(-c3ccsc3)sc2c1` here?
A: The EC50 was “inactive”.

Q: With `COc1cccc(-c2sc3ccccc3c2-c2ccc(OCCN3CCCC3)cc2)c1` as the compound, how does the EC50 read?
A: The EC50 was 24.6 µM.

Q: `c1ccc2c(-c3ccc(OCCN4CCCC4)cc3)c(-c3ccsc3)sc2c1` was tested. Which EC50 did it give?
A: The EC50 was 21 µM.

Q: Which EC50 does the source give for `c1ccc(-c2sc3ccccc3c2-c2ccc(OCCN3CCCC3)cc2)cc1` here?
A: Its EC50 is 28.2 µM.
